Source: patent publication US20110092488A1, “Quninoline Methanol Compounds for the Treatment and Prevention of Parasitic Infections” (priority 2005, published 2011)
Values after ≈ are worked out from the molar mass of the structure shown. Like-named read-outs stand apart in the source and are kept apart here.

What was measured:
P. falciparum TM91C235 = assay: In vitro antimalarial activity against P. falciparum TM91C235; assay type: cell-based, Plasmodium falciparum
AMRU1 strain of P. vivax = assay: Efficacy in P. vivax-challenged Aotus monkeys; assay type: in vivo, Plasmodium vivax in Aotus lemurinus lemurinus; details: oral; for Outcome: Aotus
Description: The P. berghei-mouse efficacy data were obtained from the WRAIR chemical information system (subcutaneous testing) or from recent tests conducted at AFRIMS, Thailand or at the University of Miami using a modified version of the Thompson test. Groups of five mice were inoculated through i.p. injection on day 0 (usually with 1×106 P. berghei-parasitized erythrocytes). The drugs in Table 1 were administered either subcutaneously or orally for three days (usually on days 3-5) at doses of 1.25-160 mg/kg in two to four fold increments. Cure was defined as survival until day 60 (subcutaneous dosing) or day 31 post-treatment (oral dosing). […] The minimum effective dose was the lowest dose level that cured at least one of five mice. The Aotus studies were performed according to Obaldia; Detection of Klebsiella pnuumoniae antibodies in Aotus l. lemurinus (Panamanian owl monkey) using an enzyme linked immunosorbent assay (ELIA) test; Lab Anim (25)133-141 (1991) and Obaldia et al., WR 238605, chloroquine, and their combinations as blood schizonticides against a chloroquine-resistant strain of Plasmodium vivax in Aotus monkeys; Am. J. Trop. Med. Hyg. (56)508-510 (1997), which are incorporated by reference, herein. Groups of two Aotus lemurinus 6 lemurinus of the karyotype VIII or IX (27) male and female monkeys with weights ranging from 742-970 g were inoculated with 5×10^6 parasites of either the FVO strain of P. falciparum or the AMRU1 strain of P. vivax. Both of these strains are chloroquine resistant. […] Monkeys were examined and thick Giemsa-stained blood smears were prepared and enumerated daily (17) to monitor the course of infection. […] In some instances, a high dose of the test drug was used to retreat monkeys instead of the mefloquine rescue. Monkeys are considered cured if they are parasite free 90 days post treatment. […] Plasma samples were taken from the monkeys in some studies for quantification of metabolites. Additional blood samples were taken as appropriate for complete blood counts and serum chemistry. Research was conducted in compliance with the Animal Welfare Act and other federal statutes and regulations relating to animals and experiments involving animals and adheres to principles stated in the Guide for the Care and Use of Laboratory Animals, NRC Publication, 1996 edition (34).

[1] = test system: primary rat forebrain neurons; assay: Neurocytotoxicity assay (MTT)
Description: The neurocytotoxicity assay of AAQMs was conducted as per Dow et al.; The antimalarial potential of 4-quinolinecarbinolamines may be limited due to neurotoxicity and cross-resistance in mefloquine-resistant Plasmodium falciparum strains; Chemother. (48) 2624-2632 (2004) and is incorporated herein, by reference. This assay utilizes primary rat forebrain neurons and is a multi-endpoint screen. […] The AAQMs outlined in Table 1 were screened at 10, 100 and 1000 μM in triplicate, and the reduction in viability observed was determined using the 3-(4,5-dimethylthiazol-2-yl)-2,5-diphenyltetrazolium bromide (MTT) assay as per Dow et al., discussed above. Approximate IC50 values were calculated on the basis of the level of inhibition observed at each concentration. Full dose response assays were run for mefloquine and WR069878 with two fold dilutions (n=6 wells per dilution) and 11 dilutions for each drug. IC50s were calculated using Prism. Each time the assay is conducted, 20 μM mefloquine is included, as a control. […] Assays are re-run if the loss of viability induced by mefloquine is <40% or >60%. Neuroprotection experiments with 6,7-dinitroquinoxaline-2,3-dione (DNQX) and magnesium were performed as per Dow et al.; Transcriptional profiling of mefloquine-induced disruption of calcium homeostasis in neurons in vitro; Genomics (86)539-550 (2005), which is incorporated by reference, herein. Neurons were exposed to DNQX (100 μM) or magnesium (12 mM) for 5 min, followed by mefloquine (25 μM) or WR069878 (250 μM) for 20 min after which reduction in cell viability was determined. […] DNQX is an inhibitor of non-N-methyl-D-aspartate (NMDA) receptors, whilst magnesium inhibits the functioning of the inositol 1,4,5-trisphosphate (IP3)-mediated calcium signaling pathway at several points. The effects of mefloquine and WR069878 on neuronal calcium homeostasis were assessed utilizing confocal microscopy as per Dow et al, as discussed in Antimicrob Agents Chemother. (48)2624-2632 (2004), cited above, and incorporated by reference, herein. Briefly neurons were loaded with calcium sensitive dye Fluo 3-A for 1 h and were washed prior to image experiments. Neurons were ‘spiked’ with 100 μM mefloquine or WR069878. Subsequent changes in neuronal calcium homeostasis were recorded as fluctuations in the emitted fluorescence of fluo-3-complexed calcium at 530 nm (excitation was 488 nm). Sequential image scans of fields containing 5-25 neurons were used to construct temporal profiles. Scans were made at 10 s intervals. Fluorescence levels for each neuron were normalized 12 to time zero values. Data were then pooled from three and five independent experiments for mefloquine and WR069878 respectively.

P. falciparum TM90C2A = assay: In vitro antimalarial activity against P. falciparum TM90C2A; assay type: cell-based, Plasmodium falciparum
Description: (§1) The in vitro activities of AAQMs against P. falciparum strains W2, D6, TM91C235 and TM90C2A were evaluated using the method of Desjardins et al. as modified by Milhous et al. W2 is chloroquine resistant and mefloquine sensitive, D6 is chloroquine sensitive but naturally less susceptible to mefloquine, TM91C235 is resistant to mefloquine, chloroquine and pyrimethamine as is TM90C2A, however this latter parasite is a two pfmdr1 copy strain. We routinely run mefloquine in this screen as a control to ensure assay validity.

[2] = test system: FVO strain of P. falciparum; assay: Efficacy in P. falciparum-challenged Aotus monkeys; assay type: in vivo, Plasmodium falciparum in Aotus lemurinus lemurinus
P. falciparum D6 = assay: In vitro antimalarial activity against P. falciparum D6; assay type: cell-based, Plasmodium falciparum
Description: as §1
The combined effects of azithromycin (as represented by compound 196 on the horizontal axes of FIG. 4 through 6) and WR074086 (as represented by compound 14885 on vertical axes of FIGS. 4 through 6) against three strains of P. falciparum were investigated using isobologram analysis. First, the IC50s of each compound were determined as described above.

Activity against P. falciparum TM91C235 (IC50 in ng/ml) (P. falciparum TM91C235): 1.5 ng/mL | TM91C235 IC90 (P. falciparum TM91C235; Table 2): 3.3 ng/mL | IC90 against TM91C235 (P. falciparum TM91C235; text b26): 11.7 ng/mL (≈ 0.0255 µM) | IC90 against TM90C2A (P. falciparum TM90C2A): 16 ng/mL (≈ 0.0348 µM) | IC90 against D6 (P. falciparum D6): 5.3 ng/mL (≈ 0.0115 µM)
Compound: CCCCN(CCCC)CC(O)c1cc(-c2ccc(Cl)cc2)nc2cc(Cl)c(C)cc12 (stereo not shown) [WR069878]
Outcome (AMRU1 strain of P. vivax; 0.625 mg/kg/day x 3 days, primary treatment): Failure | Outcome (AMRU1 strain of P. vivax; 2.5 mg/kg/day x 3 days, primary treatment): Failure | Outcome (AMRU1 strain of P. vivax; 10 mg/kg/day x 3 days, primary treatment, number in brackets = days before recrudescence, 10 mg/kg/day): Clear (7) and Cure | Outcome (AMRU1 strain of P. vivax; 20 mg/kg/day x 1 day, retreatment, one monkey per line, number in brackets = days before recrudescence, 20 mg/kg/day): Cure and Clear (8) | Outcome (AMRU1 strain of P. vivax; 40 mg/kg/day x 3 days, retreatment): Cure | Outcome (AMRU1 strain of P. vivax; 80 mg/kg/day x 1 day, retreatment, number in brackets = days before recrudescence, 80 mg/kg/day): Clear (11) and Cure | Outcome in P. vivax infections (AMRU1 strain of P. vivax; three day regimen): cures P. vivax infections | IC50 ([1]; read-out: Neurotoxicity IC50, full dose response, FIG. 2(a)): 242 µM | IC50 ([1]; read-out: Neurotoxicity ranking (IC50 in μM), approximate IC50 from screen at 10, 100 and 1000 μM, MTT): 200 µM | Outcome in Aotus ([2]; 10 mg/kg/day x7 oral, groups of two, Cure = parasite free 90 days, R = average day of recrudescence, Failure = rescued with mefloquine): Cures and Cure | Outcome ([2]; Aotus, oral, 10 mg/kg/day x 7 days, primary treatment): Cure
